According to US11345711B2, “8,9-dihydroimidazo[1,2-a]pyrimido[5,4-e]pyrimidin-5(6H)-ones” (IMPACT THERAPEUTICS (SHANGHAI), INC, priority 2016, dated 2022):
Where two headings read alike, the source gives them in different places.

How the values were obtained:
Wee1 (h) = Wee1 (h) (Homo sapiens, UniProt P30291); assay: Wee1 kinase (h) detection method, [γ-33P]-ATP filter assay; format: biochemical
LoVo cells = assay: MTT based cell viability assay on LoVo cells; details: Homo sapiens, LoVo, 72 h, 3 d, read-out: IC50, growth inhibition of LoVo cells
In short: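 Inhibition of LoVo proliferation was derived as IC50 from a sigmoidal dose-response fit of cell survival. Readout was MTT (0.5 mg/mL, 4 h) with absorbance at 552/630/690 nm, after 3-day treatment at 37 °C. Eight-point series from 10 μM to 0.01 μM, DMSO control, 1% DMSO final.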

NCI-H1299 cells = assay: MTT based cell viability assay on NCI-H1299 cells; details: Homo sapiens, read-out: IC50, growth inhibition of NCI-H1299 cells
In short: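 Viability read-out was MTT reduction (0.5 mg/mL, 4 h, absorbance 552/630/690 nm) after 3-day compound exposure at 37 °C of NCI-H1299 cells seeded at 1000 per well. Dilutions spanned 10 μM–0.01 μM in DMSO, final DMSO 1‰. Survival-versus-concentration curves were fitted sigmoidally to give IC50.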

Wee1 (h), sequence (P30291 whole entry): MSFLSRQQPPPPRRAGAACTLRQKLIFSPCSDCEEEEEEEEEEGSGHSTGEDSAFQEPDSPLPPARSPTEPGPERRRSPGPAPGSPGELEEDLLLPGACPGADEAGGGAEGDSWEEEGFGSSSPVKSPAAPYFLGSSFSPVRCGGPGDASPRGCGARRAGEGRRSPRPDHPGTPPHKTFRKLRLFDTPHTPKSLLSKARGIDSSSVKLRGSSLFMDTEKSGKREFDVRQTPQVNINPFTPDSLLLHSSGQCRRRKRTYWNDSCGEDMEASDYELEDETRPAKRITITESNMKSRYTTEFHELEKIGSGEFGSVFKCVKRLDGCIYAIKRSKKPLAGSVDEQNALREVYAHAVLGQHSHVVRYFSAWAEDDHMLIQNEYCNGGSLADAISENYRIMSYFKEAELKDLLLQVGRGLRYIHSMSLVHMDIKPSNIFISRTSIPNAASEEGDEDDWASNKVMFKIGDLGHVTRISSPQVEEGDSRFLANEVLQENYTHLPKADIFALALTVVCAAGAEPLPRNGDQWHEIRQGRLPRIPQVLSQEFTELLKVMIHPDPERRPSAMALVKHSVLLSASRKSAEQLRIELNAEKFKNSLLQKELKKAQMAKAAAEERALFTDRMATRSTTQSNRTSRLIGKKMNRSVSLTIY

| Compound | Inh. (%) of Wee1 kinase enzyme activity (Wee1 (h); C 0.01 μm compound) [%] | Inh. (%) of Wee1 kinase enzyme activity (Wee1 (h); C 0.1 μm compound) [%] | Inh. (%) of Wee1 kinase enzyme activity (Wee1 (h); C 1 μm compound) [%] | IC50 (LoVo cells) [nM] | IC50 (NCI-H1299 cells; NCI-H1299, NCI-H1299 cells) [nM] | IC50 (NCI-H1299 cells; NCI-H1299 cells) [nM] |
| --- | --- | --- | --- | --- | --- | --- |
| CN1CCN(c2c(F)cc(Nc3ncc4c(n3)N3CCN=C3N(c3c(Cl)cccc3Cl)C4=O)cc2Cl)CC1 [Example 147, 6-(2,6-Dichlorophenyl)-2-((3-chloro-5-fluoro-4-(4-methylpiperazin-1-yl)phenyl)amino)-8,9-dihydroimidazo[1,2-a]pyrimido[5,4-e]pyrimidin-5(6H)-one] | 42 | 86 | 96 | 91.1 | 209 |  |
| Cc1cc(Nc2ncc3c(n2)N2CCN=C2N(c2c(Cl)cccc2Cl)C3=O)cc(F)c1N1CCN(C)CC1 [Example 148, 6-(2,6-Dichlorophenyl)-2-((3-fluoro-5-methyl-4-(4-methylpiperazin-1-yl)phenyl)amino)-8,9-dihydroimidazo[1,2-a]pyrimido[5,4-e]pyrimidin-5(6H)-one] | 40 | 90 | 94 | 39.8 | 123 |  |
| COc1cc(Nc2ncc3c(n2)N2CCN=C2N(c2c(Cl)cccc2Cl)C3=O)cc(F)c1N1CCN(C)CC1 [Example 149, 6-(2,6-Dichlorophenyl)-2-((3-fluoro-5-methoxy-4-(4-methylpiperazin-1-yl)phenyl)amino)-8,9-dihydroimidazo[1,2-a]pyrimido[5,4-e]pyrimidin-5(6H)-one] | 22 | 72 | 94 | 59.4 | 113 |  |
| CN1CCN(c2c(Cl)cc(Nc3ncc4c(n3)N3CCN=C3N(c3c(Cl)cccc3Cl)C4=O)cc2Cl)CC1 [Example 150, 6-(2,6-Dichlorophenyl)-2-((3,5-dichloro-4-(4-methylpiperazin-1-yl)phenyl)amino)-8,9-dihydroimidazo[1,2-a]pyrimido[5,4-e]pyrimidin-5(6H)-one] | 20 | 81 | 93 | 116 | 347 |  |
| Cc1cc(Nc2ncc3c(n2)N2CCN=C2N(c2c(Cl)cccc2Cl)C3=O)cc(Cl)c1N1CCN(C)CC1 [Example 151, 6-(2,6-Dichlorophenyl)-2-((3-chloro-5-methyl-4-(4-methylpiperazin-1-yl)phenyl)amino)-8,9-dihydroimidazo[1,2-a]pyrimido[5,4-e]pyrimidin-5(6H)-one] | 42 | 98 | 97 | 30.8 | 175 |  |
| CN1CCN(c2c(Cl)cc(Nc3ncc4c(n3)N3CCN=C3N(c3c(Cl)cccc3Cl)C4=O)cc2C(F)(F)F)CC1 [Example 152, 6-(2,6-Dichlorophenyl)-2-((3-chloro-4-(4-methylpiperazin-1-yl)-5-(trifluoromethyl)phenyl)amino)-8,9-dihydroimidazo[1,2-a]pyrimido[5,4-e]pyrimidin-5(6H)-one] |  |  | 88 | 139 | 1950 |  |
| COc1cc(Nc2ncc3c(n2)N2CCN=C2N(c2c(Cl)cccc2Cl)C3=O)cc(Cl)c1N1CCN(C)CC1 [Example 153, 6-(2,6-Dichlorophenyl)-2-((3-chloro-5-methoxy-4-(4-methylpiperazin-1-yl)phenyl)amino)-8,9-dihydroimidazo[1,2-a]pyrimido[5,4-e]pyrimidin-5(6H)-one] | 30 | 84 | 94 | 56.3 | 235 |  |
| CN1CCN(c2c(F)cc(Nc3ncc4c(n3)N3CCN=C3N(c3c(Cl)cccc3Cl)C4=O)cc2Br)CC1 [Example 154, 6-(2,6-Dichlorophenyl)-2-((3-bromo-5-fluoro-4-(4-methylpiperazin-1-yl)phenyl)amino)-8,9-dihydroimidazo[1,2-a]pyrimido[5,4-e]pyrimidin-5(6H)-one] | 25 | 72 | 96 | 63.3 | 174 |  |
| CN1CCN(c2c(Cl)cc(Nc3ncc4c(n3)N3CCN=C3N(c3c(Cl)cccc3Cl)C4=O)cc2Br)CC1 [Example 155, 6-(2,6-Dichlorophenyl)-2-((3-bromo-5-chloro-4-(4-methylpiperazin-1-yl)phenyl)amino)-8,9-dihydroimidazo[1,2-a]pyrimido[5,4-e]pyrimidin-5(6H)-one] | 16 | 66 | 94 | 74.1 | 109 |  |
| Cc1cc(Nc2ncc3c(n2)N2CCN=C2N(c2c(Cl)cccc2Cl)C3=O)cc(Br)c1N1CCN(C)CC1 [Example 156, 6-(2,6-Dichlorophenyl)-2-((3-bromo-5-methyl-4-(4-methylpiperazin-1-yl)phenyl)amino)-8,9-dihydroimidazo[1,2-a]pyrimido[5,4-e]pyrimidin-5(6H)-one] | 19 | 81 | 96 | 62.7 | 150 |  |
| COc1cc(Nc2ncc3c(n2)N2CCN=C2N(c2c(Cl)cccc2Cl)C3=O)cc(Br)c1N1CCN(C)CC1 [Example 157, 6-(2,6-Dichlorophenyl)-2-((3-bromo-5-methoxy-4-(4-methylpiperazin-1-yl)phenyl)amino)-8,9-dihydroimidazo[1,2-a]pyrimido[5,4-e]pyrimidin-5(6H)-one] |  |  | 91 | 38.6 |  | 222 |
| Cc1cc(Nc2ncc3c(n2)N2CCN=C2N(c2c(Cl)cccc2Cl)C3=O)cc(C)c1N1CCN(C)CC1 [Example 158, 6-(2,6-Dichlorophenyl)-2-((3,5-dimethyl-4-(4-methylpiperazin-1-yl)phenyl)amino)-8,9-dihydroimidazo[1,2-a]pyrimido[5,4-e]pyrimidin-5(6H)-one] | 27 | 84 | 95 | 58.5 | 105 |  |
| Cc1cc(Nc2ncc3c(n2)N2CCN=C2N(c2c(Cl)cccc2Br)C3=O)cc(F)c1N1CCC(N(C)C)CC1 [Example 160, 6-(2-Bromo-6-chlorophenyl)-2-((4-(4-(dimethylamino)piperidin-1-yl)-3-fluoro-5-methylphenyl)amino)-8,9-dihydroimidazo[1,2-a]pyrimido[5,4-e]pyrimidin-5(6H)-one] | 31 | 85 | 98 | 27.3 | 62.8 |  |
| CN1CCN(c2ccc(Nc3ncc4c(n3)N3CCN=C3N(c3c(Cl)cccc3Br)C4=O)cc2Cl)CC1 [Example 161, 6-(2-Bromo-6-chlorophenyl)-2-((3-chloro-4-(4-methylpiperazin-1-yl)phenyl)amino)-8,9-dihydroimidazo[1,2-a]pyrimido[5,4-e]pyrimidin-5(6H)-one] | 27 | 72 | 97 | 93.3 |  | 217 |
| CN1CCN(c2ccc(Nc3ncc4c(n3)N3CCN=C3N(c3c(Cl)cccc3Br)C4=O)cc2Br)CC1 [Example 162, 6-(2-Bromo-6-chlorophenyl)-2-((3-bromo-4-(4-methylpiperazin-1-yl)phenyl)amino)-8,9-dihydroimidazo[1,2-a]pyrimido[5,4-e]pyrimidin-5(6H)-one] | 22 | 86 | 98 | 65.2 |  | 207 |
| Cc1cc(Nc2ncc3c(n2)N2CCN=C2N(c2c(Cl)cccc2Br)C3=O)ccc1N1CCN(C)CC1 [Example 163, 6-(2-Bromo-6-chlorophenyl)-2-((3-methyl-4-(4-methylpiperazin-1-yl)phenyl)amino)-8,9-dihydroimidazo[1,2-a]pyrimido[5,4-e]pyrimidin-5(6H)-one] | 25 | 87 | 99 | 62.5 |  | 97.8 |
| CN1CCN(c2c(Cl)cc(Nc3ncc4c(n3)N3CCN=C3N(c3c(Cl)cccc3Br)C4=O)cc2Cl)CC1 [Example 164, 6-(2-Bromo-6-chlorophenyl)-2-((3,5-dichloro-4-(4-methylpiperazin-1-yl)phenyl)amino)-8,9-dihydroimidazo[1,2-a]pyrimido[5,4-e]pyrimidin-5(6H)-one] | 17 | 68 | 97 | 101 | 159 |  |
| Cc1cc(Nc2ncc3c(n2)N2CCN=C2N(c2c(Cl)cccc2Br)C3=O)cc(F)c1N1CCN(C)CC1 [Example 165, 6-(2-Bromo-6-chlorophenyl)-2-((3-fluoro-5-methyl-4-(4-methylpiperazin-1-yl)phenyl)amino)-8,9-dihydroimidazo[1,2-a]pyrimido[5,4-e]pyrimidin-5(6H)-one] |  |  | 92 | 24.1 | 97.3 |  |
